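Tested at 5 concentrations; 48 h exposure; 96-well plates; endpoints linearly interpolated, else capped at highest concentration. The concentration for 50% growth inhibition is given as GI50. TGI denotes the concentration required for complete inhibition of growth.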
Assays:
Assay in all cases: DTP human tumour cell line panel, 48 h
A549 NSCLC = tested on: A549 NSCLC
COLO 205 colon = tested on: COLO 205 colon
HOP-92 NSCLC = tested on: HOP-92 NSCLC
K-562 leukemia = tested on: K-562 leukemia
NCI-H23 lung = tested on: NCI-H23 lung
OVCAR-8 ovarian = tested on: OVCAR-8 ovarian
PC-3 prostate = tested on: PC-3 prostate
UACC-257 melanoma = tested on: UACC-257 melanoma
HL-60(TB) leukemia = tested on: HL-60(TB) leukemia

Row | SMILES | TGI (A549 NSCLC) | TGI (COLO 205 colon) | TGI (HOP-92 NSCLC) | TGI (K-562 leukemia) | TGI (NCI-H23 lung) | TGI (OVCAR-8 ovarian) | TGI (PC-3 prostate) | TGI (UACC-257 melanoma) | TGI (HL-60(TB) leukemia) | GI50 (A549 NSCLC) | GI50 (COLO 205 colon) | GI50 (HL-60(TB) leukemia) | GI50 (K-562 leukemia) | GI50 (NCI-H23 lung) | GI50 (OVCAR-8 ovarian) | GI50 (PC-3 prostate) | GI50 (UACC-257 melanoma) | GI50 (HOP-92 NSCLC)
1 | Cc1cc(Cl)cc2c1NC(=O)C2(O)CC(=O)c1ccco1 (stereo unspecified) | > 100 µM | > 100 µM | > 100 µM | 54.6 µM | > 100 µM | > 100 µM | > 100 µM | > 100 µM | – | – | – | – | – | – | – | – | – | –
2 | Nc1cccc(S(=O)(=O)NCC(=O)O)c1 | > 100 µM | > 100 µM | – | > 100 µM | > 100 µM | > 100 µM | – | > 100 µM | – | – | – | – | – | – | – | – | – | –
3 | NC1=NC(c2ccccc2)CC(c2cc(Cl)ccc2O)=N1 (stereo unspecified) | 29 µM | 33.7 µM | 33.5 µM | 40.8 µM | 29.4 µM | 29.8 µM | – | 35.7 µM | 40.1 µM | – | – | – | – | – | – | – | – | –
4 | CC(C)(C)c1cc(CCC(=O)Nc2ccc(Cl)cc2)nc(NC#N)n1 | > 100 µM | > 100 µM | > 100 µM | > 100 µM | > 100 µM | > 100 µM | – | > 100 µM | > 100 µM | – | – | – | – | – | – | – | – | –
5 | O=C(CC1(O)C(=O)Nc2ccccc21)c1ccncc1 (stereo unspecified) | > 100 µM | > 100 µM | > 100 µM | > 100 µM | > 100 µM | – | – | – | > 100 µM | – | – | – | – | – | – | – | – | –
6 | CCCC(=O)OCC1OC(n2cnc3c(=S)nc[nH]c32)C(OC(=O)CCC)C1OC(=O)CCC (stereo unspecified) | > 100 µM | 18.9 µM | – | > 100 µM | > 100 µM | > 100 µM | > 100 µM | > 100 µM | 9.96 µM | 38.1 µM | 4.57 µM | 2.6 µM | 1.7 µM | 5.09 µM | 4.2 µM | 3.72 µM | 10.7 µM | –
7 | C#CCNC(=O)c1cccc2c1cc(C)n2-c1nc2c(c(NCc3ccccc3)n1)CCCC2 | 0.124 µM | 0.0382 µM | 0.0669 µM | – | 0.0563 µM | 0.363 µM | 0.0717 µM | – | 0.191 µM | 0.0381 µM | 0.0191 µM | 0.029 µM | 0.0179 µM | 0.0195 µM | 0.0312 µM | 0.024 µM | – | 0.0239 µM
8 | COc1ccc2nc3c(C(=O)NCCN(C)C)cccc3nc2c1 | > 100 µM | 22.9 µM | 24 µM | 29.5 µM | 24.7 µM | > 100 µM | – | 19.9 µM | > 100 µM | – | – | – | – | – | – | – | – | –
9 | O=S(=O)(NC1=NCCN1C(=S)SN1CCn2c1nsc2=S)c1cccc(Cl)c1 | 91.2 µM | 20.7 µM | 71.3 µM | > 100 µM | – | > 100 µM | 47.2 µM | 39.5 µM | 80.5 µM | 30.3 µM | 7.48 µM | 13.1 µM | 13.4 µM | – | 26.4 µM | 15.4 µM | 18.6 µM | 25.4 µM
10 | COC1(OC)CC2OC1C1N=NN(C(=O)OC(C)(C)C)C21 (stereo unspecified) | > 100 µM | > 100 µM | > 100 µM | > 100 µM | > 100 µM | – | – | > 100 µM | 81.6 µM | – | – | – | – | – | – | – | – | –
11 | Cc1cc(N(CCC#N)CCC#N)ccc1/C=C1\N=C(c2cc([N+](=O)[O-])ccc2Cl)N(c2cccc(Cl)c2)C1=O | > 100 µM | > 100 µM | > 100 µM | > 100 µM | > 100 µM | > 100 µM | – | > 100 µM | > 100 µM | – | – | – | – | – | – | – | – | –

— PubChem BioAssay (NCI)
